US10202360B2 (CELGENE QUANTICEL RESEARCH, INC., priority 2016, dated 2019)

Target: CREBBP (Homo sapiens (Human), UniProt Q92793)
Assay: In vitro enzyme inhibition assay - CREBBP inhibition (AlphaScreen, biotinylated H4-tetraacetyl peptide)
Assay type: binding
Settings: Table 28; AlphaScreen, H4-tetraacetyl peptide
In short: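 Displacement of 20 nM biotinylated tetraacetyl-H4 peptide from 50 nM E. coli-expressed His-CREBBP, measured by AlphaScreen after bead equilibration for 2 h.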

Sequence of CREBBP (Q92793 1081-1197): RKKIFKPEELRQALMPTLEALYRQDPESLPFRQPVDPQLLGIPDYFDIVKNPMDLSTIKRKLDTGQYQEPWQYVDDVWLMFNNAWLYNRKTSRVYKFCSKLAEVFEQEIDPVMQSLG

Row | SMILES | IC50
1 | Cc1cccc(F)c1Oc1nc(NS(=O)(=O)C(C)C)cc(-c2cc(Cl)c(=O)n(C)c2)n1 [Example 117, Propane-2-sulfonic acid [6-(5-chloro-1-methyl-6-oxo-1,6-dihydro-pyridin-3-yl)-2-(2-fluoro-6-methyl-phenoxy)-pyrimidin-4-yl]-amide] | < 0.5 µM
2 | CCC[C@H](C)S(=O)(=O)Nc1cc(-c2ccc(=O)n(C)c2)nc(Oc2c(C)cccc2F)n1 [Example 216, (2S)-Pentane-2-sulfonic acid [2-(2-fluoro-6-methyl-phenoxy)-6-(1-methyl-6-oxo-1,6-dihydro-pyridin-3-yl)-pyrimidin-4-yl]-amide] | < 0.5 µM
3 | Cc1cccc(C#N)c1Oc1nc(NS(=O)(=O)C(C)C)cc(-c2cc(C)c(=O)n(C)c2)n1 [Example 24, Propane-2-sulfonic acid [2-(2-cyano-6-methyl-phenoxy)-6-(1,5-dimethyl-6-oxo-1,6-dihydro-pyridin-3-yl)-pyrimidin-4-yl]-amide] | < 0.5 µM
4 | Cc1cccc(Cl)c1Oc1nc(-c2cc(C)c(=O)n(C)c2)cc(S(=O)(=O)C(C)C)n1 [Example 135, 5-[2-(2-Chloro-6-methyl-phenoxy)-6-(propane-2-sulfonyl)-pyrimidin-4-yl]-1,3-dimethyl-1H-pyridin-2-one] | < 0.5 µM
5 | Cc1cccc(C)c1Oc1nc(NS(=O)(=O)C(C)C)c(C)c(-c2cc(C)c(=O)n(C)c2)n1 [Example 163, Propane-2-sulfonic acid [6-(1,5-dimethyl-6-oxo-1,6-dihydro-pyridin-3-yl)-2-(2,6-dimethyl-phenoxy)-5-methyl-pyrimidin-4-yl]-amide] | < 0.5 µM
6 | COc1ccc(C)cc1Oc1nc(NS(=O)(=O)C(C)C)cc(-c2cc(C)c(=O)n(C)c2)n1 [Example 4, Propane-2-sulfonic acid [6-(1,5-dimethyl-6-oxo-1,6-dihydro-pyridin-3-yl)-2-(2-methoxy-5-methyl-phenoxy)-pyrimidin-4-yl]-amide] | < 0.5 µM
7 | CCCCS(=O)(=O)Nc1nc(Oc2c(C)cccc2F)nc(-c2ccc(=O)n(C)c2)n1 [Example 178, Butane-1-sulfonic acid [4-(2-fluoro-6-methyl-phenoxy)-6-(1-methyl-6-oxo-1,6-dihydro-pyridin-3-yl)-[1,3,5]triazin-2-yl]-amide] | < 0.5 µM
8 | CC(C)S(=O)(=O)Nc1cc(-c2ccc(=O)n(C)c2)nc(OC2CCCCC2)n1 [Example 247, Propane-2-sulfonic acid [2-cylcohexyloxy-6-(1-methyl-6-oxo-1,6-dihydro-pyridin-3-yl)-pyrimidin-4-yl]-amide] | < 0.5 µM
9 | Cc1nn(C)c(C)c1Oc1nc(NS(=O)(=O)C(C)C)cc(-c2ccc(=O)n(C)c2)n1 [Example 125, Propane-2-sulfonic acid [6-(1-methyl-6-oxo-1,6-dihydro-pyridin-3-yl)-2-(1,3,5-trimethyl-1H-pyrazol-4-yloxy)-pyrimidin-4-yl]-amide] | < 0.5 µM
10 | Cc1cc(-c2cc(NCc3ccccc3)nc(Oc3ccc(F)cc3F)n2)cn(C)c1=O [Example 272, 5-(6-(benzylamino)-2-(2,4-difluorophenoxy)pyrimidin-4-yl)-1,3-dimethylpyridin-2(1H)-one] | < 0.5 µM
11 | CCC[C@H](C)Nc1cc(-c2ccc(=O)n(C)c2)nc(Oc2c(C)cccc2C#N)n1 [Example 321, (S)-3-Methyl-2-[4-(1-methyl-butylamino)-6-(1-methyl-6-oxo-1,6-dihydro-pyridin-3-yl)-pyrimidin-2-yloxy]-benzonitrile] | < 0.5 µM
12 | CCC(CC)S(=O)(=O)Nc1cc(-c2ccc(=O)n(C)c2)nc(Oc2c(F)cccc2Cl)n1 [Example 254, Pentane-3-sulfonic acid [2-(2-chloro-6-fluoro-phenoxy)-6-(1-methyl-6-oxo-1,6-dihydro-pyridin-3-yl)-pyrimidin-4-yl]-amide] | < 0.5 µM
13 | CC[C@H](C)S(=O)(=O)Nc1cc(-c2ccc(=O)n(C)c2)nc(Oc2c(F)ccc(C)c2F)n1 [Example 225, (S)-N-(2-(2,6-difluoro-3-methylphenoxy)-6-(1-methyl-6-oxo-1,6-dihydropyridin-3-yl)pyrimidin-4-yl)butane-2-sulfonamide] | < 0.5 µM
14 | Cn1cc(-c2cc(NS(=O)(=O)CCCF)nc(Oc3c(F)cccc3Cl)n2)ccc1=O [Example 148, N-(2-(2-chloro-6-fluorophenoxy)-6-(1-methyl-6-oxo-1,6-dihydropyridin-3 yl)pyrimidin-4-yl)-3-fluoropropane-1-sulfonamide] | < 0.5 µM
15 | Cc1cccc(F)c1Oc1nc(NC2CCCc3ccccc32)cc(-c2ccc(=O)n(C)c2)n1 (centres unmarked) [Example 280, 5-(2-(2-fluoro-6-methylphenoxy)-6-((1,2,3,4-tetrahydronaphthalen-1-yl)amino)pyrimidin-4-yl)-1-methylpyridin-2(1H)-one] | < 0.5 µM
16 | CC[C@@H](C)S(=O)(=O)Nc1cc(-c2ccc(=O)n(C)c2)nc(Oc2c(F)cccc2F)n1 [Example 230, (R)-N-(2-(2,6-difluorophenoxy)-6-(1-methyl-6-oxo-1,6-dihydropyridin-3-yl)pyrimidin-4-yl)butane-2-sulfonamide] | < 0.5 µM

Row | SMILES | IC50
17 | COc1cccc(C)c1Oc1nc(NS(=O)(=O)C(C)C)cc(-c2cc(C)c(=O)n(C)c2)n1 [Example 8, Propane-2-sulfonic acid [6-(1,5-dimethyl-6-oxo-1,6-dihydro-pyridin-3-yl)-2-(2-methoxy-6-methyl-phenoxy)-pyrimidin-4-yl]-amide] | < 0.5 µM
18 | CCS(=O)(=O)Nc1nc(Oc2c(C)cccc2F)nc(-c2ccc(=O)n(C)c2)n1 [Example 175, Ethanesulfonic acid [4-(2-fluoro-6-methyl-phenxoy)-6-(1-methyl-6-oxo-1,6-dihydro-pyridin-3-yl)-[1,3,5]triazin-2-yl]-amide] | < 0.5 µM
19 | CCCS(=O)(=O)Nc1cc(-c2ccc(=O)n(C)c2)nc(Oc2c(F)cccc2OC)n1 [Example 235, Propane-1-sulfonic acid [2-(2-fluoro-6-methoxy-phenoxy)-6-(1-methyl-6-oxo-1,6-dihydro-pyridin-3-yl)-pyrimidin-4-yl]-amide] | < 0.5 µM
20 | CCCS(=O)(=O)Nc1cc(-c2ccc(=O)n(C)c2)nc(Oc2c(F)cccc2C2CC2)n1 [Example 239, Propane-1-sulfonic acid [2-(2-cyclopropyl-6-fluoro-phenoxy)-6-(1-methyl-6-oxo-1,6-dihydro-pyridin-3-yl)-pyrimidin-4-yl]-amide] | < 0.5 µM
21 | CCS(=O)(=O)Nc1cc(-c2ccc(=O)n(C)c2)nc(-c2ccc(C)cc2OC)n1 [Example 194, Ethanesulfonic acid [2-(2-methoxy-4-methyl-phenyl)-6-(1-methyl-6-oxo-1,6-dihydro-pyridin-3-yl)-pyrimidin-4-yl]-amide] | 0.5 to 5 µM
22 | CCCS(=O)(=O)Nc1cc(-c2ccc(=O)n(C)c2)nc(OC2CCOCC2)n1 [Example 354, N-(6-(1-methyl-6-oxo-1,6-dihydropyridin-3-yl)-2-((tetrahydro-2H-pyran-4-yl)oxy)pyrimidin-4-yl)propane-1-sulfonamide] | < 0.5 µM
23 | COc1nc(NC(C)c2ccccc2)cc(-c2ccc(=O)n(C)c2)n1 (centres unmarked) [Example 327, 5-[2-Methoxy-6-(1-phenyl-ethylamino)-pyrimidin-4-yl]-1-methyl-1H-pyridin-2-one] | < 0.5 µM
24 | CCc1cccc(F)c1Oc1nc(NS(=O)(=O)C(C)CC)cc(-c2ccc(=O)n(C)c2)n1 (centres unmarked) [Example 338, N-(2-(2-ethyl-6-fluorophenoxy)-6-(1-methyl-6-oxo-1,6-dihydropyridin-3-yl)pyrimidin-4-yl)butane-2-sulfonamide] | < 0.5 µM
25 | CCS(=O)(=O)Nc1nc(Oc2c(C)cccc2F)nc(-c2cc(C)c(=O)n(C)c2)c1C [Example 159, Ethane-2-sulfonic acid [6-(1,5-dimethyl-6-oxo-1,6-dihydro-pyridin-3-yl)-2-(2-fluoro-6-methyl-phenoxy)-5-methyl-pyrimidin-4-yl]-amide] | < 0.5 µM
26 | CCS(=O)(=O)Nc1cc(-c2ccc(=O)n(C)c2)nc(-c2cc(C)ccc2OC)n1 [Example 195, Ethanesulfonic acid [2-(2-methoxy-5-methyl-phenyl)-6-(1-methyl-6-oxo-1,6-dihydro-pyridin-3-yl)-pyrimidin-4-yl]-amide] | 0.5 to 5 µM
27 | CCCS(=O)(=O)Nc1cc(-c2cc(C)c(=O)n(C)c2)nn1C [Example 336, Propane-1-sulfonic acid [5-(1,5-dimethyl-6-oxo-1,6-dihydro-pyridin-3-yl)-2-methyl-2H-pyrazol-3-yl]-amide] | 0.5 to 5 µM
28 | CC[C@H](C)S(=O)(=O)Nc1cc(-c2ccc(=O)n(C)c2)nc(Oc2c(C)cccc2C2CC2)n1 [Example 211, Butane-(2S)-sulfonic acid [2-(2-cylcopropyl-6-methyl-phenoxy)-6-(1-methyl-6-oxo-1,6-dihydro-pyridin-3-yl)-pyrimidin-4-yl]-amide] | < 0.5 µM
29 | Cc1cc(-c2cc(NS(=O)(=O)C(C)C)nc(Oc3ccc(F)cc3F)n2)cn(CC(C)C)c1=O [Example 48, Propane-2-sulfonic acid [2-(2,4-difluoro-phenoxy)-6-(1-isobutyl-5-methyl-6-oxo-1,6-dihydro-pyridin-3-yl)-pyrimidin-4-yl]-amide] | > 5 µM
30 | Cc1cc(-c2cc(NS(=O)(=O)C(C)C)nc(Nc3ccc(F)cc3F)n2)cn(C)c1=O [Example 91, N-(2-((2,4-difluorophenyl)amino)-6-(1,5-dimethyl-6-oxo-1,6-dihydropyridin-3-yl)pyrimidin-4-yl)propane-2-sulfonamide] | < 0.5 µM
31 | CC[C@@H](C)S(=O)(=O)Nc1cc(-c2ccc(=O)n(C)c2)nc(Oc2c(F)cccc2C2CC2)n1 [Example 210, Butane-(2R)-sulfonic acid [2-(2-cyclopropyl-6-fluoro-phenoxy)-6-(1-methyl-6-oxo-1,6-dihydro-pyridin-3-yl)-pyrimidin-4-yl]-amide] | < 0.5 µM
32 | Cc1cccc(F)c1Oc1nc(NS(=O)(=O)C(C)C)c(C)c(-c2cc(C)c(=O)n(C)c2)n1 [Example 162, Propane-2-sulfonic acid [6-(1,5-dimethyl-6-oxo-1,6-dihydro-pyridin-3-yl)-2-(2-fluoro-6-methyl-phenoxy)-5-methyl-pyrimidin-4-yl]-amide] | < 0.5 µM
